Reference: patent US7914821B2, “Pharmaceutical composition for prevention and/or treatment of bone loss” (KO DA Pharmaceuticals Co., Ltd., priority 2008, dated 2011)

Columns and labels:
Male Sprague-Dawley rats = assay: Animal experiment: local administration into the tibia; assay type: in vivo, rat; details: for bone volume of tibia metaphysis / BMC / BMD / BV/TV (bone volume/tissue volume): 30 μM every day for a week through needle into tibia; for bone volume of tibia metaphysis: FIG. 12; for increase of bone mineral content / increase of bone mineral density: 'at least' figure, matches Table 3 vs control; for BMC / BMD / BV/TV (bone volume/tissue volume): tibia
Method: Male Sprague-Dawley rats (weighing 78 to 90 grams, at three weeks of age) were anesthetized with […] of trichloroacetaldehyde monohydrate. […] needle was sterilized and injected into the tibia of the rats. One day after the injection, the rats were administered with normal saline as the control, 30 μM imperatorin, and 30 μM bergapten every day for a week through the needle, respectively. Then, the rats were slaughtered after the last administration, and the tibias were immediately isolated after slaughtering and subject to BMD, BMC, and histochemical examination. Referring to FIG. 12, the bone volume of tibia metaphysis was increased by imperatorin and bergapten.

EPK protein = assay: Phosphorylation of EPK protein (western blot); assay type: cell-based, rat; details: 10 μM, 1, 3, 6, 12, 24 hrs; FIG. 10
Method: (§1) Rat primary osteoblast was isolated from the parietal bone of gestation day 18 embryos of Sprague-Dawley rats. After being slaughtered, the embryo rats were obtained from the uteruses of the rats, and calvarium was isolated from the embryo rats. Parietal bone was cut from the calvarium and digested by 0.1% collagenase for 20 minutes to release the bone cells from the bone tissue. The digestion step was repeated five times. The collected bone cells were cultured in α-MEM containing 1% penicillin-streptomycin and 10% FBS in a humidified atmosphere of 5 percent carbon dioxide. When cells were attached and confluence, they were sub-cultured, which was called “passage 2 (P2)”. The passage was for analogizing. 2 to 5 passage cells were used for the experiments.
Bone cells was cultured in 6-well plate and treated with 10 μM of imperatorin and bergapten for 1, 3, 6, 12, and 24 hrs, respectively. […] Following incubation with the secondary antibody, the membrane was washed three times with PBST, and detected by an […] chemiluminescence using an ECL blotting substrate according to the manufacturer's instructions. […]

Bone cells [1] = assay: Cell viability (MTT); assay type: cell-based, rat; details: 0.3, 1, 3, 10 μM, 48 hrs, FIG. 7A
Method: as §1
Bone cells were cultured in 96-well plate and treated with 0.3, 1, 3, and 10 μM of imperatorin and bergapten for 48 hrs, respectively. After treatment, the cells were reacted with MTT solution (0.5 mg/ml) at 37° C. for 30 minutes, lysed in 100 μl DMSO, and then absorbance was measured at […]. The cell viability in the control group which was treated with 0.1% DMSO was defined as 100%.

Bone cells [2] = assay: Mineralization in bone cells (Alizarin red-S); assay type: cell-based, rat; details: for mineralization of bone cells: 0.3, 1, 3, 10 μM, 14 days, differentiation medium, FIGS. 8C-8D; for increase of mineralization: 'at least' figure
Method: as §1
Bone cells were cultured in 96-well Plate containing a differentiation medium (50 μg/ml vitamin C and 10 mM β-glycerophosphate) and treated with 0.3, 1, 3, and 10 μM of imperatorin and bergapten, respectively. The differentiation medium was refreshed every 3 days. 14 days after the cell culture, the bone cells were fixed with 75% ethanol for 30 minutes, and then treated with 40 mM Alizarin red-S at room temperature for 1 hr. After the addition of Alizarin red-S, 10% cetylpyridinium chloride was added, and then absorbance was measured at […]. The mineralization level in the control group which was treated with 0.1% DMSO was defined as 100%. Referring to FIGS. 8C-8D, imperatorin and bergapten both increased the mineralization of bone cells.

SMILES	bone volume of tibia metaphysis (Male Sprague-Dawley rats)	increase of bone mineral content (Male Sprague-Dawley rats) [%]	increase of bone mineral density (Male Sprague-Dawley rats)	BMC (Male Sprague-Dawley rats) [g]	BMD (Male Sprague-Dawley rats) [g/mL]	BV/TV (bone volume/tissue volume) (Male Sprague-Dawley rats) [%]	phosphorylation of EPK protein (EPK protein)	cell viability (Bone cells [1])	mineralization of bone cells (Bone cells [2])	increase of mineralization (Bone cells [2]) [%]
COc1c2ccoc2cc2oc(=O)ccc12 [bergapten]	increased	≥ 33.7	at least 12.2%	0.111 ± 0.003	0.101 ± 0.002	18.1 ± 0.4	induced	did not suppress	increased	≥ 105.0
CC(C)=CCOc1c2occc2cc2ccc(=O)oc12 [imperatorin]	increased	≥ 28.91	at least 12.22%	0.107 ± 0.003	0.101 ± 0.002	17.6 ± 0.6	induced		increased	≥ 110.0
